Data from patent US20200289667A1, “Targeting Macrophages to Modulate Electrical Conduction in the Heart” (The General Hospital Corporation, priority 2016, published 2020).

What was measured:
Type in all cases: in vivo, mouse
AV block = experiment: Surface ECG of Cd11b^DTR mice with AV block after intravenous drug administration; conditions: Cd11b^DTR mice with second and third degree AV block; intravenous (atropine 1 mg/kg, epinephrine 2 mg/kg, isoproterenol 20 mg/kg)
Experimental: (§1) Mice were anesthetized as described above and surface ECG was recorded using subcutaneous electrodes connected to the Animal Bio amplifier and PowerLab station (AD Instruments). The ECG channel was filtered between 0.3 and 1000 Hz and analyzed using LabChart Pro software. Atropine (1 mg/kg), epinephrine (2 mg/kg) or isoproterenol (20 mg/kg) were administered intravenously, and changes were examined before and after injection.

AV node macrophages = experiment: Flow cytometric quantification of AV node macrophages after depletion
Experimental: (§2) Mice were put into parabiosis using either C57BL/6 and Cx3cr1^GFP/+ or Cd11b^DTR and Cx3cr1^GFP/+ mice as described previously (12). Tamoxifen was given as a solution in corn oil (Sigma) to Cx3cr1^wt/CreER ChR2^fl/fl or Cx3cr1^wt/CreER Cx43^fl/fl mice by intraperitoneal injection. Animals received 5 doses of 2 mg of tamoxifen with a separation of 24 hours between doses. Cx3cr1^wt/CreER ChR2^wt/fl and Cx3cr1^wt/CreER Cx43^fl/fl mice were analyzed 2 and 7 days post-tamoxifen treatment, respectively. Macrophage depletion was achieved by a single intraperitoneal injection of diphtheria toxin (DT, 25 ng/g body weight) in Cd11b^DTR mice (12). C57BL/6 mice injected with DT were used as controls. Clodronate liposomes were kindly provided by Dr. Kory J. Lavine and contained 18 mg of clodronate per mL of liposomes. Depletion studies were performed by intraperitoneal injection of 100 μL/30 g mouse (13).
Peripheral blood for flow cytometric analysis was collected by retro-orbital bleeding using heparinized capillary tubes (BD Diagnostics) and red blood cells were lysed with 1× red blood cell lysis buffer (BioLegend). To determine electrolyte levels, blood was collected by cardiac puncture and electrolytes were measured on serum with EasyLyte PLUS analyzer (Medica). For organ harvest, mice were perfused through the LV with 10 mL of ice-cold PBS. […]

AV node conduction = AV node conduction by ECG telemetry, surface ECG and EP study after macrophage depletion
Experimental: as §2
EP studies were performed under general anaesthesia induced by administering 5% isoflurane driven by an oxygen source into an induction chamber. Anaesthesia was subsequently maintained with 1-2% isoflurane in 95% O2. For EP study, an octapolar catheter (EPR-800) was inserted into the right jugular vein and positioned in the right atrium and ventricle. Programmed electrical stimulation was performed using a standard protocol with 120 ms and 100 ms drive trains and single extrastimuli to measure function of the AV node and the conduction properties of atrial and ventricular tissue. The Wenckebach cycle length was measured by progressively faster atrial pacing rates. Retrograde (VA) conduction cycle length was measured by progressively slower ventricular pacing rates. Sinus node function was determined by measuring the sinus node recovery time (SNRT) following 30 seconds of pacing at three cycle lengths (120, 100 and 80 ms). SNRT was divided by the basic cycle length to adjust for the intrinsic heart rate.
Continuous ambulatory ECG telemetry was performed by implanting an ETA-F10 transmitter during general anaesthesia with isoflurane. The transmitter was implanted in the abdomen and the leads were tunneled subcutaneously to the upper right and lower left chest resulting in a lead II position. Telemetry data was recorded continuously via a receiver placed under the mouse cage. Data analysis was performed using LabChart Pro software.
as §1

Compound: CN1[C@@H]2CC[C@H]1C[C@@H](OC(=O)C(CO)c1ccccc1)C2 (stereo partly drawn) [atropine]
- attenuation of AV block (AV block): did not attenuate

Compound: CNC[C@H](O)c1ccc(O)c(O)c1 [epinephrine]
- attenuation of AV block (AV block): did not attenuate

Compound: CC(C)NCC(O)c1ccc(O)c(O)c1 (stereo not drawn) [isoproterenol]
- attenuation of AV block (AV block): did not attenuate

Compound: diphtheria toxin [DT]
- number of AV node macrophages (AV node macrophages; C57BL/6 control mice, three days after DT injection): did not alter
- time of maximum depletion of AV node macrophages (AV node macrophages; Cd11b^DTR mice, single intraperitoneal dose of 25 ng/g body weight): three
- induction of AV block (AV node conduction; C57BL/6 control mice, surface ECG): did not induce AV block
- progression of AV block (AV node conduction; Cd11b^DTR mice, ECG telemetry, after DT injection): progressively evolved into second and third degree AV block
- onset of first degree AV block (all mice) (AV node conduction; Cd11b^DTR mice, ECG telemetry, single dose 25 ng/g): one
- induction of AV block (AV node conduction; Cx3cr1^GFP/+ mice joined in parabiosis with Cd11b^DTR mice, surface ECG three days after DT): did not induce AV block
